Experimental data as given in ChEMBL document CHEMBL4007502, “Cytotoxic dammarane-type triterpenoids from the leaves of Viburnum sambucinum” (Bioorg Med Chem Lett, 2017).

tested on: HepG2; assay: Cytotoxicity against human HepG2 cells assessed as growth inhibition after 72 hrs by neutral red assay; type: functional, cell-based; conditions: HepG2, 72 h

Compound	IC50 [µM]
C[C@H]1[C@H](C)CC[C@]2(C(=O)O)CC[C@]3(C)C(=CC[C@@H]4[C@@]5(C)CC[C@H](O)C(C)(C)[C@@H]5CC[C@]43C)[C@H]12 [URSOLIC ACID]	40.2
CO[C@@H]1CC(=O)[C@]2(C)[C@@H]1[C@H](O)C[C@@H]1[C@@]3(C)CC[C@H](O)C(C)(C)[C@@H]3CC[C@]12C	82
C[C@H]1[C@H](C)CC[C@]2(C)CC[C@]3(C)C(=CC[C@@H]4[C@@]5(C)CC[C@H](O)C(C)(C)[C@@H]5CC[C@]43C)[C@H]12	> 100
O=c1cc(-c2ccc(O)c(O)c2)oc2cc(O)cc(O)c12 [LUTEOLIN]	47.3
COc1c(-c2ccc(O)cc2)oc2cc(O)cc(O)c2c1=O [ISOKAEMPFERIDE]	62.5
C=C(C)[C@@H]1CC[C@@]2(C)[C@H]1[C@H]1CC[C@@H]3[C@@]4(C)CCC(=O)C(C)(C)[C@@H]4CC[C@@]3(C)[C@]1(C)C[C@@H]2O	50.4
CC1(C)[C@@H](O)CC[C@]2(C)[C@H]3C[C@@H](O)[C@@H]4C=CC(=O)[C@@]4(C)[C@]3(C)CC[C@@H]12	5.1
CC1(C)CC[C@]2(C(=O)O)CC[C@]3(C)C(=CC[C@@H]4[C@@]5(C)C[C@@H](O)[C@H](O)C(C)(C)[C@@H]5CC[C@]43C)[C@@H]2C1 [MASLINIC ACID]	> 100
CC1(C)C(=O)CC[C@]2(C)[C@H]3C[C@@H](O)[C@@H]4[C@H](O)CC(=O)[C@@]4(C)[C@]3(C)CC[C@@H]12	5.7
C[C@H]1[C@H](C)CC[C@]2(CO)CC[C@]3(C)C(=CC[C@@H]4[C@@]5(C)CC[C@H](O)C(C)(C)[C@@H]5CC[C@]43C)[C@H]12 [UVAOL]	53.7
C/C(=C\CC[C@](C)(O)[C@@H]1[C@H]2CC[C@@H]3[C@@]4(C)CCC(=O)C(C)(C)[C@@H]4CC[C@@]3(C)[C@]2(C)C[C@@H]1O)C(=O)O	> 100
CC1(C)[C@@H](O)CC[C@]2(C)[C@H]3C[C@@H](O)[C@@H]4[C@H](O)CC(=O)[C@@]4(C)[C@]3(C)CC[C@@H]12	> 100
C/C(=C\CO)CCCC(C)CCCC(C)CCCC(C)C (stereo not drawn)	> 100
CC1(C)C(=O)CC[C@]2(C)[C@H]3C[C@@H](O)[C@@H]4C=CC(=O)[C@@]4(C)[C@]3(C)CC[C@@H]12	5.3
CC1(C)CC[C@]2(C(=O)O)CC[C@]3(C)C(=CC[C@@H]4[C@@]5(C)CC[C@H](O)C(C)(C)[C@@H]5CC[C@]43C)[C@@H]2C1 [OLEANOLIC_ACID]	> 100
C/C(=C\CC[C@](C)(O)[C@H]1CC[C@]2(C)[C@@H]1CC[C@@H]1[C@@]3(C)CCC(=O)C(C)(C)[C@@H]3CC[C@]12C)C(=O)O	> 100

tested on: KB; assay: Cytotoxicity against human KB cells assessed as growth inhibition after 72 hrs by neutral red assay; type: functional, cell-based; conditions: not given

Compound	IC50 [µM]
CO[C@@H]1CC(=O)[C@]2(C)[C@@H]1[C@H](O)C[C@@H]1[C@@]3(C)CC[C@H](O)C(C)(C)[C@@H]3CC[C@]12C	78
C[C@H]1[C@H](C)CC[C@]2(C)CC[C@]3(C)C(=CC[C@@H]4[C@@]5(C)CC[C@H](O)C(C)(C)[C@@H]5CC[C@]43C)[C@H]12	> 100
O=c1cc(-c2ccc(O)c(O)c2)oc2cc(O)cc(O)c12 [LUTEOLIN]	45.3
COc1c(-c2ccc(O)cc2)oc2cc(O)cc(O)c2c1=O [ISOKAEMPFERIDE]	64.8
C=C(C)[C@@H]1CC[C@@]2(C)[C@H]1[C@H]1CC[C@@H]3[C@@]4(C)CCC(=O)C(C)(C)[C@@H]4CC[C@@]3(C)[C@]1(C)C[C@@H]2O	30.5
CC1(C)[C@@H](O)CC[C@]2(C)[C@H]3C[C@@H](O)[C@@H]4C=CC(=O)[C@@]4(C)[C@]3(C)CC[C@@H]12	5.2
CC1(C)CC[C@]2(C(=O)O)CC[C@]3(C)C(=CC[C@@H]4[C@@]5(C)C[C@@H](O)[C@H](O)C(C)(C)[C@@H]5CC[C@]43C)[C@@H]2C1 [MASLINIC ACID]	> 100
CC1(C)C(=O)CC[C@]2(C)[C@H]3C[C@@H](O)[C@@H]4[C@H](O)CC(=O)[C@@]4(C)[C@]3(C)CC[C@@H]12	> 100
C[C@H]1[C@H](C)CC[C@]2(CO)CC[C@]3(C)C(=CC[C@@H]4[C@@]5(C)CC[C@H](O)C(C)(C)[C@@H]5CC[C@]43C)[C@H]12 [UVAOL]	37.7
C/C(=C\CC[C@](C)(O)[C@@H]1[C@H]2CC[C@@H]3[C@@]4(C)CCC(=O)C(C)(C)[C@@H]4CC[C@@]3(C)[C@]2(C)C[C@@H]1O)C(=O)O	> 100
CC1(C)[C@@H](O)CC[C@]2(C)[C@H]3C[C@@H](O)[C@@H]4[C@H](O)CC(=O)[C@@]4(C)[C@]3(C)CC[C@@H]12	> 100
C/C(=C\CO)CCCC(C)CCCC(C)CCCC(C)C (stereo not drawn)	> 100
CC1(C)C(=O)CC[C@]2(C)[C@H]3C[C@@H](O)[C@@H]4C=CC(=O)[C@@]4(C)[C@]3(C)CC[C@@H]12	5
CC1(C)CC[C@]2(C(=O)O)CC[C@]3(C)C(=CC[C@@H]4[C@@]5(C)CC[C@H](O)C(C)(C)[C@@H]5CC[C@]43C)[C@@H]2C1 [OLEANOLIC_ACID]	> 100
C/C(=C\CC[C@](C)(O)[C@H]1CC[C@]2(C)[C@@H]1CC[C@@H]1[C@@]3(C)CCC(=O)C(C)(C)[C@@H]3CC[C@]12C)C(=O)O	> 100

tested on: Lu1; assay: Cytotoxicity against human Lu1 cells assessed as growth inhibition after 72 hrs by neutral red assay; type: functional, cell-based; conditions: Lu1, 72 h

Compound	IC50 [µM]
C[C@H]1[C@H](C)CC[C@]2(C(=O)O)CC[C@]3(C)C(=CC[C@@H]4[C@@]5(C)CC[C@H](O)C(C)(C)[C@@H]5CC[C@]43C)[C@H]12 [URSOLIC ACID]	11.5
CO[C@@H]1CC(=O)[C@]2(C)[C@@H]1[C@H](O)C[C@@H]1[C@@]3(C)CC[C@H](O)C(C)(C)[C@@H]3CC[C@]12C	80.7
C[C@H]1[C@H](C)CC[C@]2(C)CC[C@]3(C)C(=CC[C@@H]4[C@@]5(C)CC[C@H](O)C(C)(C)[C@@H]5CC[C@]43C)[C@H]12	> 100
O=c1cc(-c2ccc(O)c(O)c2)oc2cc(O)cc(O)c12 [LUTEOLIN]	40.8
COc1c(-c2ccc(O)cc2)oc2cc(O)cc(O)c2c1=O [ISOKAEMPFERIDE]	60.1
C=C(C)[C@@H]1CC[C@@]2(C)[C@H]1[C@H]1CC[C@@H]3[C@@]4(C)CCC(=O)C(C)(C)[C@@H]4CC[C@@]3(C)[C@]1(C)C[C@@H]2O	61.5
CC1(C)[C@@H](O)CC[C@]2(C)[C@H]3C[C@@H](O)[C@@H]4C=CC(=O)[C@@]4(C)[C@]3(C)CC[C@@H]12	5.2
CC1(C)CC[C@]2(C(=O)O)CC[C@]3(C)C(=CC[C@@H]4[C@@]5(C)C[C@@H](O)[C@H](O)C(C)(C)[C@@H]5CC[C@]43C)[C@@H]2C1 [MASLINIC ACID]	> 100
CC1(C)C(=O)CC[C@]2(C)[C@H]3C[C@@H](O)[C@@H]4[C@H](O)CC(=O)[C@@]4(C)[C@]3(C)CC[C@@H]12	5.8
C[C@H]1[C@H](C)CC[C@]2(CO)CC[C@]3(C)C(=CC[C@@H]4[C@@]5(C)CC[C@H](O)C(C)(C)[C@@H]5CC[C@]43C)[C@H]12 [UVAOL]	53.3
C/C(=C\CC[C@](C)(O)[C@@H]1[C@H]2CC[C@@H]3[C@@]4(C)CCC(=O)C(C)(C)[C@@H]4CC[C@@]3(C)[C@]2(C)C[C@@H]1O)C(=O)O	> 100
CC1(C)[C@@H](O)CC[C@]2(C)[C@H]3C[C@@H](O)[C@@H]4[C@H](O)CC(=O)[C@@]4(C)[C@]3(C)CC[C@@H]12	> 100
C/C(=C\CO)CCCC(C)CCCC(C)CCCC(C)C (stereo not drawn)	> 100
CC1(C)C(=O)CC[C@]2(C)[C@H]3C[C@@H](O)[C@@H]4C=CC(=O)[C@@]4(C)[C@]3(C)CC[C@@H]12	5.1
CC1(C)CC[C@]2(C(=O)O)CC[C@]3(C)C(=CC[C@@H]4[C@@]5(C)CC[C@H](O)C(C)(C)[C@@H]5CC[C@]43C)[C@@H]2C1 [OLEANOLIC_ACID]	> 100
C/C(=C\CC[C@](C)(O)[C@H]1CC[C@]2(C)[C@@H]1CC[C@@H]1[C@@]3(C)CCC(=O)C(C)(C)[C@@H]3CC[C@]12C)C(=O)O	> 100

tested on: MCF7; assay: Cytotoxicity against human MCF7 cells assessed as growth inhibition after 72 hrs by neutral red assay; type: functional, cell-based; conditions: MCF7, 72 h

Compound	IC50 [µM]
C[C@H]1[C@H](C)CC[C@]2(C(=O)O)CC[C@]3(C)C(=CC[C@@H]4[C@@]5(C)CC[C@H](O)C(C)(C)[C@@H]5CC[C@]43C)[C@H]12 [URSOLIC ACID]	9.3
CO[C@@H]1CC(=O)[C@]2(C)[C@@H]1[C@H](O)C[C@@H]1[C@@]3(C)CC[C@H](O)C(C)(C)[C@@H]3CC[C@]12C	79.7
C[C@H]1[C@H](C)CC[C@]2(C)CC[C@]3(C)C(=CC[C@@H]4[C@@]5(C)CC[C@H](O)C(C)(C)[C@@H]5CC[C@]43C)[C@H]12	> 100
O=c1cc(-c2ccc(O)c(O)c2)oc2cc(O)cc(O)c12 [LUTEOLIN]	44.4
COc1c(-c2ccc(O)cc2)oc2cc(O)cc(O)c2c1=O [ISOKAEMPFERIDE]	55.4
C=C(C)[C@@H]1CC[C@@]2(C)[C@H]1[C@H]1CC[C@@H]3[C@@]4(C)CCC(=O)C(C)(C)[C@@H]4CC[C@@]3(C)[C@]1(C)C[C@@H]2O	48
CC1(C)[C@@H](O)CC[C@]2(C)[C@H]3C[C@@H](O)[C@@H]4C=CC(=O)[C@@]4(C)[C@]3(C)CC[C@@H]12	5
CC1(C)CC[C@]2(C(=O)O)CC[C@]3(C)C(=CC[C@@H]4[C@@]5(C)C[C@@H](O)[C@H](O)C(C)(C)[C@@H]5CC[C@]43C)[C@@H]2C1 [MASLINIC ACID]	> 100
CC1(C)C(=O)CC[C@]2(C)[C@H]3C[C@@H](O)[C@@H]4[C@H](O)CC(=O)[C@@]4(C)[C@]3(C)CC[C@@H]12	4.3
C[C@H]1[C@H](C)CC[C@]2(CO)CC[C@]3(C)C(=CC[C@@H]4[C@@]5(C)CC[C@H](O)C(C)(C)[C@@H]5CC[C@]43C)[C@H]12 [UVAOL]	58.2
C/C(=C\CC[C@](C)(O)[C@@H]1[C@H]2CC[C@@H]3[C@@]4(C)CCC(=O)C(C)(C)[C@@H]4CC[C@@]3(C)[C@]2(C)C[C@@H]1O)C(=O)O	> 100
CC1(C)[C@@H](O)CC[C@]2(C)[C@H]3C[C@@H](O)[C@@H]4[C@H](O)CC(=O)[C@@]4(C)[C@]3(C)CC[C@@H]12	> 100
C/C(=C\CO)CCCC(C)CCCC(C)CCCC(C)C (stereo not drawn)	> 100
CC1(C)C(=O)CC[C@]2(C)[C@H]3C[C@@H](O)[C@@H]4C=CC(=O)[C@@]4(C)[C@]3(C)CC[C@@H]12	4.7
CC1(C)CC[C@]2(C(=O)O)CC[C@]3(C)C(=CC[C@@H]4[C@@]5(C)CC[C@H](O)C(C)(C)[C@@H]5CC[C@]43C)[C@@H]2C1 [OLEANOLIC_ACID]	> 100
C/C(=C\CC[C@](C)(O)[C@H]1CC[C@]2(C)[C@@H]1CC[C@@H]1[C@@]3(C)CCC(=O)C(C)(C)[C@@H]3CC[C@]12C)C(=O)O	> 100
